In publication PMC11280325, “Design, Synthesis, and Characterization of Novel Thiazolidine-2,4-Dione-Acridine Hybrids as Antitumor Agents” (Molecules, 2024) one finds IC50 data, which are given here for five compounds.

Test [1] has as its system PATU. The test can be described thus: MTT assay, PATU 8902. The conditions noted are these: pancreas adenocarcinoma, 48 h incubation. It counts as cell-based, human. Put shortly: (§1)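 5–10 × 10^3 cells/well, 24 h attach → compound 5, 10, 20, 50 µmol/L in medium, 48 h → MTT → 10% SDS, 24 h → A540. IC50 by nonlinear regression, n ≥ 3.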
(Tetrazolium dyes change colour on reduction, which living cells bring about.)

For test [2], the system named is A2780. Nature of the test: MTT assay, A2780. It counts as cell-based, human. The conditions noted are these: ovarian adenocarcinoma, 48 h incubation. The method, then:
The human cancer cell lines HeLa (cervical adenocarcinoma), HCT116 (colorectal adenocarcinoma), A2780 (human ovarian adenocarcinoma), A2780cis (human ovarian adenocarcinoma cisplatin-resistant), Jurkat (acute T-lymphoblastic leukemia), and Hep G2 (hepatocellular carcinoma) were cultured in an RPMI 1640 growth medium (Biosera, Kansas City, MO, USA). The cancer cell lines MDA-MB-231 (triple-negative breast adenocarcinoma), A2058 (human melanoma), U87 (human glioblastoma), PATU 8902 (pancreas adenocarcinoma), and A549 (human lung adenocarcinoma) were cultured in a DMEM medium (Biosera, Kansas City, MO, USA). The media were supplemented with 10% fetal bovine serum (FBS) (Invitrogen, Carlsbad, CA, USA) and 1× HyClone™ Antibiotic/Antimycotic Solution (GE Healthcare, Piscataway, NJ, USA).
(§2) To evaluate the IC50 (half-maximal inhibitory concentration) and confirm the antiproliferative activity of the tested substances, we employed the colorimetric MTT assay (3-(4,5-dimethylthiazol-2-yl)-2,5-diphenyltetrazolium bromide) (Sigma-Aldrich Chemie, Steinheim, Germany). The cell lines were seeded in 96-well plates at a density of 5 × 10^3 to 10 × 10^3 cells per well. After 24 h, the tested substances, dissolved in the cultivation medium, were added to the cells at final concentrations of 5, 10, 20, and 50 µmol/L. The cells were then incubated for 48 h under standard cultivation conditions. Following the incubation period, MTT was added to each well. The MTT was metabolized by the cells into insoluble formazan crystals, which were subsequently dissolved by adding 100 µL of 10% SDS. After another 24 h, the absorbance was measured at a wavelength of 540 nm using the automated Cytation™ 3 Cell Imaging Multi-Mode Reader (Biotek, Winooski, VT, USA). The experiments were performed in at least three independent repetitions. IC50 values were calculated using a nonlinear regression method.

The subject of test [3] is HeLa. The test can be described thus: MTT assay, HeLa. It counts as cell-based, human. The conditions noted are these: cervical adenocarcinoma, 48 h incubation. Summed up: as §1
In test [4] the test system is Bj-5ta. Nature of the test: MTT assay, BJ-5ta non-cancerous fibroblasts. It counts as cell-based, human. The conditions noted are these: non-cancerous dermal fibroblasts, 48 h incubation. Put shortly: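 Human MCF-10A breast epithelial and BJ-5ta dermal fibroblast cells seeded 24 h, then exposed to compounds at 5, 10, 20 and 50 µmol/L for 48 h at 37 °C. MTT with SDS solubilization, absorbance 540 nm. IC50 from nonlinear regression, ≥3 independent repeats.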

Test [5] relates to Hep G2. Nature of the test: MTT assay, Hep G2. The conditions noted are these: hepatocellular carcinoma, 48 h incubation. It counts as cell-based, human. Put shortly: (§3)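 MTT viability after 48 h exposure to compounds at final 5–50 µmol/L; formazan in 10% SDS read at 540 nm, IC50 fitted by nonlinear regression from at least three independent experiments.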
The subject of test [6] is HCT116. The test can be described thus: MTT assay, HCT116. It counts as cell-based, human. The settings on record: colorectal adenocarcinoma, 48 h incubation. Summed up:
as §1

For test [7], the system named is A2058. Nature of the test: MTT assay, A2058. It counts as cell-based. The settings on record: human melanoma, 48 h incubation. Summed up:
as §1

Test [8] relates to A549. Nature of the test: MTT assay, A549. It counts as cell-based, human. The conditions noted are these: lung adenocarcinoma, 48 h incubation. Put shortly:
as §3

In test [9] the test system is MCF-10A. The test can be described thus: MTT assay, MCF-10A non-cancerous cells. It counts as cell-based, human. The conditions noted are these: non-cancerous epithelial breast cells, 48 h incubation. The method, then: The non-cancerous cell line MCF-10A (human epithelial breast cells) was cultured in a DMEM F12 medium supplemented with 10% FBS (Invitrogen, Carlsbad, CA, USA), 1× HyClone™ Antibiotic/Antimycotic Solution (GE Healthcare, Piscataway, NJ, USA), insulin, hEGF, and hydrocortisone. The BJ-5ta cells (human dermal fibroblasts) were cultured in a DMEM-M199 4:1 medium mixture, supplemented with 10% FBS and hygromycin B (0.01 mg/mL). The cells were maintained under standard conditions with an atmosphere containing 5% CO2 at 37 °C. Cell viability, estimated by trypan blue exclusion, was consistently greater than 95% before each experiment.
as §2

Where a name gives a salt, the structure may show the parent alone.

The term IC50 denotes the concentration needed to halve the response being measured. Low values mean higher potency, high ones lower potency. With `COc1cc(NC(=O)COc2ccc(/C=C3\SC(=O)N(Cc4c5ccccc5nc5ccccc45)C3=O)cc2OC)cc(OC)c1` [12b·2HCl, 2-(4-{[(5Z)-3-[(Acridin-9-yl)methyl]-2,4-dioxo-1,3-thiazolidin-5-ylidene]methyl}-2-methoxyphenoxy)-N-(3,5-dimethoxyphenyl)acetamide dihydrochloride], the IC50 is greater than 50 µM in test [1]; 15 ± 1.4 µM in [2]; 11.9 ± 7.4 µM in [3]; 29.6 ± 4.4 µM in [4]; greater than 50 µM in test [5]; 27.3 ± 3.75 µM in [6]. In addition, the IC50 was greater than 50 µM in [7], greater than 50 µM in [8] and 12.4 ± 1.9 µM in test [9].

`COc1cc(/C=C2\SC(=O)N(Cc3c4ccccc4nc4ccccc34)C2=O)ccc1OCC(=O)Nc1cc(OC)c(OC)c(OC)c1` [12c·2HCl, 2-(4-{[(5Z)-3-[(Acridin-9-yl)methyl]-2,4-dioxo-1,3-thiazolidin-5-ylidene]methyl}-2-methoxyphenoxy)-N-(3,4,5-trimethoxyphenyl)acetamide dihydrochloride]: the IC50 in test [1] was greater than 50 µM; in [2] it was greater than 50 µM; in [3] it was 20.2 ± 5.4 µM; in test [4], greater than 50 µM; in [5], greater than 50 µM; in test [6], 5.4 ± 2.4 µM. Also, the IC50 in test [7], in test [8] and in test [9] was greater than 50 µM each time.

On to `COc1cc(/C=C2\SC(=O)N(Cc3c4ccccc4nc4ccccc34)C2=O)ccc1OCC(=O)Nc1ccccc1C(F)(F)F` [12e·2HCl, 2-(4-{[(5Z)-3-[(Acridin-9-yl)methyl]-2,4-dioxo-1,3-thiazolidin-5-ylidene]methyl}-2-methoxyphenoxy)-N-[2-(trifluoromethyl)phenyl]acetamide dihydrochloride], for which the IC50 in test [1] was greater than 50 µM; in test [2], greater than 50 µM; in [3] it was 13.2 ± 4.9 µM; in test [4], greater than 50 µM; in test [5], greater than 50 µM; in test [6] it was 29.2 ± 3.7 µM. In addition, the IC50 in test [7], in test [8] and in test [9] was greater than 50 µM throughout.

For the compound `COc1cc(/C=C2\SC(=O)N(Cc3c4ccccc4nc4ccccc34)C2=O)ccc1OCC(=O)Nc1cccc(C(F)(F)F)c1` [12f·2HCl, 2-(4-{[(5Z)-3-[(Acridin-9-yl)methyl]-2,4-dioxo-1,3-thiazolidin-5-ylidene]methyl}-2-methoxyphenoxy)-N-[3-(trifluoromethyl)phenyl]acetamide dihydrochloride], the concentration for half-maximal inhibition (IC50) is greater than 50 µM in [1]; greater than 50 µM in test [2]; 19.4 ± 6.48 µM in test [3]; greater than 50 µM in test [4]; greater than 50 µM in [5]; 4.98 ± 2.9 µM in test [6]. For the same compound, the 50% inhibitory concentration (IC50) in [7], in test [8] and in test [9] was greater than 50 µM throughout.

Consider `COc1cc(/C=C2\SC(=O)N(Cc3c4ccccc4nc4ccccc34)C2=O)ccc1OCC(=O)Nc1cc(C(F)(F)F)cc(C(F)(F)F)c1` [12g·2HCl, 2-(4-{[(5Z)-3-[(Acridin-9-yl)methyl]-2,4-dioxo-1,3-thiazolidin-5-ylidene]methyl}-2-methoxyphenoxy)-N-[3,5-bis(trifluoromethyl)phenyl]acetamide dihydrochloride], for which the IC50 in test [1] is greater than 50 µM; in test [2], greater than 50 µM; in test [3], 25.1 ± 6.4 µM; in [4], greater than 50 µM; in [5], greater than 50 µM; in test [6] it was 26.7 ± 9.01 µM. Also, the IC50 in [7], in test [8] and in test [9] was greater than 50 µM each time.
